From patent US5965539A, “Inhibitors of prenyl transferases” (Univeristy of Pittsburgh, priority 1996, dated 1999)
Like-named read-outs stand apart in the source and are kept apart here.

Experiments:
K-Ras4B processing = K-Ras4B processing assay in NIH 3T3 cells overexpressing oncogenic K-Ras4B; format: cell-based; details: for IC50: Mus musculus, NIH3T3, whole cells
Description: H-Ras cells (45) and K-Ras4B Cells (32) were kind gifts from Dr. Channing Der and Dr. Adrienne Cox (University of North Carolina, Chapel Hill). Means of obtaining these cell lines will be easily recognized by the skilled practitioner.

Rap1A processing [1] = assay: Rap1A processing assay in NIH 3T3 cells overexpressing oncogenic H-Ras, immunoblot; format: cell-based; details: whole cells; for IC50: Mus musculus, NIH3T3
Experimental: (§1) H-RasF cells (45) were seeded on day 0 in 100 mm Dishes (costar) in Dulbecco's modified Eagles medium (GIBCO) and allowed to grow to 40-60% confluency. […] On day 3, cells were washed one time with ice cold PBS and were collected and lysed by incubation for 30-60 min on ice in lysis buffer (41). Lysates were cleared (14,000 rpm, 4° C., 15 min) and supernatants collected. Equal amounts of lysate were separated on a 12.5% SDS-PAGE, transfered to nitrocellulose, and a western blot performed using a anti-Ras antibody (Y13-238, ATCC) or anti-Rap1A antibody (Santa Cruz Biotechnology, Santa Cruz, Calif.). Antibody reactions were visualized using peroxidase-conjugated goat anti-rat IgG for Y13-238 and peroxidase-conjugated goat anti-rabbit IgG for Rap1A and an enhanced chemiluminescence detection system (ECL; Amersham Corp.)
(§2) H-Ras cells (45) and K-Ras4B Cells (32) were kind gifts from Dr. Channing Der and Dr. Adrienne Cox (University of North Carolina, Chapel Hill). Means of obtaining these cell lines will be easily recognized by the skilled practitioner. Cells were seeded on day 0 in 100 mm dishes in Dulbecco's modified Eagles medium supplemented with 10% calf serum and 1% penicillin-streptomycin. […] On day 3, cells were washed and lysed in lysis buffer containing 50 mM HEPES, pH 7.5, 10 mM NaCl, 1% TX-100, 10% glycerol, 5 mM MgCl2, 1 mM EGTA, 25 μg/ml leupeptin, 2 mM PMSF, 2 mM Na3 VO4, 1 mg/ml soybean trypsin inhibitor, 10 μg/ml aprotinin, 6.4 mg/ml Sigma-104® phosphatase substrate. Lysates were cleared (14,000 rpm, 4° C., 15 min) and equal amounts of protein were separated on a 12.5% SDS-PAGE, transferred to nitrocellulose, and immunoblotted using an anti-Ras antibody (Y13-259, ATCC) or an anti-RapIA antibody (SC-65, Santa Cruz Biotechnology, Santa Cruz, Calif.). Antibody reactions were visualized using either peroxidase-conjugated goat anti-rat 1 gG (for Y13-259), or peroxidase-conjugated goat anti-rabbit 1 gG (for Rap1A) and an enhanced chemiluminescence detection (ECL, Amersham Corp.), as described previously (41).

H-Ras processing = assay: Ras processing assay in H-RasF cells (NIH 3T3 transformed with oncogenic H-Ras-CVLS), immunoblot; format: cell-based; details: for IC50: Mus musculus, NIH3T3, whole cells
Experimental: as §1, §2

[2] = system: K-Ras4B transformed NIH-3T3 cells; assay: Nude mouse xenograft, K-Ras4B transformed NIH-3T3 cells; format: in vivo, nude mice; details: for tumor size: two weeks
Experimental: In contrast, tumors from animals treated once daily with GGTI-286 (25 mg/kg or 50 mg/kg) grew to a size of 1600 mm^3 or 900 mm^3, respectively (FIG. 22).

[3] = system: oncogenic H-Ras activation of MAPK; assay: Oncogenic H-Ras activation of MAP kinase, immunoblot; format: cell-based; details: 0-30 μM, FIG. 20
Description: (§3) Equal amounts of protein were separated on a 15% SDS-PAGE, transferred to nitrocellulose, and immunoblotted using an anti-MAP kinase antibody (erk2, monoclonal, UB1, Lake Placid, N.Y.). Antibody reactions were visualized using peroxidase-conjugated donkey anti-mouse IgG (Jackson ImmunoResearch Laboratories Inc., West Grove, Pa.) and an enhanced chemiluminescence detection system (ECL, Amersham Corp.)

[4] = system: oncogenic K-Ras4B activation of MAP kinase; assay: Oncogenic K-Ras4B activation of MAP kinase, immunoblot; format: cell-based
Description: as §3

[5] = system: Raf-transformed NIH 3T3 cells; details: 50 mg/kg once daily
[6] = Description: (§4) In this model, tumors from two human lung carcinoma cell lines are implanted subcutaneously. One of these (Calu-1) harbors a K-Ras oncogenic mutation and has a deletion of the tumor suppressor gene p53. The other human lung carcinoma ([…]) has no Ras mutations.
GGTase I = target: T1, GGTase I (Homo sapiens, UniProt P53609); assay: GGTase I activity assay: transfer of [3H]geranylgeranyl to recombinant H-Ras-CVLL, Daudi 60,000xg supernatant; format: biochemical
T1 construct: FTase and GGTase I activities from 60,000×g supernatants of human Burkitt lymphoma (Daudi) cells; endogenous in cells; host or cells: human Burkitt lymphoma (Daudi) cells, 60,000xg supernatant (partially purified)
Experimental: FTase and GGTase I activities from 60,000×g supernatants of human Burkitt lymphoma (Daudi) cells (ATCC, Rockville, Md., USA) were assayed as described previously for FTase (41). Briefly, 100 μg of the supernatant was incubated in 50 mM Tris, pH 7.5, 50 μM ZnCl2, 20 mM KCl and 1 mM dithiothreitol (DTT). The reaction was incubated at […] for 30 min with recombinant Ha-Ras-CVLS (11 μM) and [^3 H]FPP (625 nM; 16.3 Ci/mmol) for FTase, and recombinant Ha-Ras-CVLL (5 μM) and [^3 H]geranylgeranylpyrophosphate (525 nM; 19.0 Ci/mmol) for GGTase I. The peptidomimetics were mixed with FTase and GGTase before adding to the reaction mixture.
Human Burkitt lymphoma (Daudi) cells (ATCC, Rockville, Md.) were grown in suspension in RPMI 1640 medium containing 10% fetal bovine serum (FBS) and 1% Pen-Strep in a humidified 10% CO2 incubator at 37° C. The cells were harvested and sonicated in 50 mM Tris, pH 7.5, 1 mM EDTA, 1 mM EGTA, 25 μg/ml leupeptin, 1 mM phenylmethylsulfonyl fluoride. Homogenates were then spun at 12,000×g and the resulting supernatant further spun at 60,000×g. The supernatant was assayed for both FTase and GGTase I. Briefly, 100 μg of the supernatants was incubated in 50 mM Tris, pH 7.5, 50 μM ZnCl2, 20 mM KCl, 3 mM MgCl2 and 1 mM DTT. For FTase assays, the reaction was incubated at 37° C. for 30 minutes with recombinant H-Ras-CVLS (11 μM) and [^3 H] FPP (625 nM; 16.3 Ci/mmol). For GGTase assays, the reaction was also incubated for 30 minutes at 37° C. but with recombinant H-Ras-CVLL (5 μM) and [^3 H] GGPP (525 nM; 19.0 Ci/mmol). The reaction was stopped and passed through glass fiber filters to separate free and incorporated label. For inhibition studies, the peptidomimetics were premixed with FTase or GGTase I prior to adding the remainder of the reaction mixture. Recombinant H-Ras-CVLS was prepared as described previously (26) from bacteria (31). Recombinant H-Ras-CVLL was prepared from bacteria (32).
FTase and GGTase I activities from 60,000×g supernatants of human Burkitt lymphoma (Daudi) cells (ATCC, Rockville, Md.) were assayed exactly as described previously for FTase (41). Inhibition studies were performed by determining the ability of Ras CAAX peptidomimetics to inhibit the transfer of [^3 H]-farnesyl and [^3 H]-geranylgeranyl from [^3 H]FPP and [^3 H]GGPP to H-ras-CVLS and H-Ras-CVLL, respectively (41).

[7] = system: NCI-H810 human lung carcinoma; details: 50 mg/kg once daily, 14 days of treatment
Description: (§5) Calu-1 (Panel A) and NCI-H810 cells (Panel B) were purchased from ATCC and grown in McCoy's 5A medium in 10% FBS (Fetal Bovine Serum) and RPMI 1640 in 10% FBS, respectively. The cells were harvested, resuspended in PBS and injected s.c. into the right and left flank of 8 week old female nude mice (10^7 cells/flank). Nude mice (Harlan Sprague Dawley, Indianapolis, Ind.) were maintained in accordance with the Institutional Animal Care and Use Committee (IACUC) procedures and guidelines. On day 32 after s.c. implantation of tumors, animals were dosed i.p. with 0.2 ml once daily for 36 days. […] The tumor volumes were determined by measuring the length (l) and the width (w) and calculating the volume (V=(l)×(w)^2 /2). Data are presented as the average volume of eight tumors in each group for each cell line. Statistical significance between control and treated groups were evaluated by using student t test (*P<0.05).

[8] = system: Calu-1 human lung carcinoma
Description: as §5, §4

Ras processing = details: 10 to 100 mg/kg, 5 hrs after last injection
Experimental: (§6) A. Antitumor efficacy was carried out as described in FIG. 3 except that animals were randomly assigned to four groups each of 4 mice each (2 tumors per mouse). […] B. Ras processing was carried out 5 hours after the last treatement on day 17. Tumors were extracted from the animals, tissumized, and lysed in lysis buffer as described in FIG. 1. Lysates (25 μg) were electrophoresed on a 12.5% SDS-PAGE and immunoblotted with anti-Ras antibody Y13-238 as described previously. The blots were then reprobed with anti-Rap1A antibody (Santa Cruze Biotechnologies, Santa Cruz, Calif.).
(§7) The tumor sizes at the end of 17 days were 2490 mm^3 for saline, 1793 mm^3 for 10 mg/kg, 1226 mm^3 for 50 mg/kg and 624 mm^3 for 100 mg/kg treated animals. […] Tumors from control animals contained only fully processed Ras which migrates faster in SDS-PAGE gels (FIG. 11B). […] Thus, the extent of tumor growth inhibition correlated with the extent of inhibition of Ras processing.

Rap1A processing [9] = details: 100 mg/kg
Experimental: as §6, §7

[10] = system: H-RasF transformed NIH 3T3 cells
Experimental: as §6, §7

T1 sequence (P53609 whole entry): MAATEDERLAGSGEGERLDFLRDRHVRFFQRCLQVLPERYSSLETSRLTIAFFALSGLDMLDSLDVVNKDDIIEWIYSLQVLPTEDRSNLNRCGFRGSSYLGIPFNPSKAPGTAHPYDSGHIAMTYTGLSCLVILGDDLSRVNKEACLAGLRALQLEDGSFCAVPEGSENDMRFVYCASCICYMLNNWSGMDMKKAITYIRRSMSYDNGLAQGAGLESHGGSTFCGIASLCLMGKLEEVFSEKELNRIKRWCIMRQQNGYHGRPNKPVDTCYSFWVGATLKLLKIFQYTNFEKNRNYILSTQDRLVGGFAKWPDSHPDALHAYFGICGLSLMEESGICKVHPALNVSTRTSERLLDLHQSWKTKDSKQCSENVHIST

COC(=O)[C@H](CC(C)C)NC(=O)c1ccc(NC[C@@H](N)CS)cc1-c1ccccc1.Cl [GGTI-286, 4-[2(R)-amino-3-mercaptopropyl]amino-2-phenylbenzoyl-(S)-leucine methyl ester hydrochloride]
concentrations inhibiting K-Ras4B processing that had no effect on processing of farnesylated H-Ras (K-Ras4B processing): 1 to 3 µM | IC50 (K-Ras4B processing; Table 5, read-out: In Vivo Processing IC50 K-Ras): 2 µM | IC50 (K-Ras4B processing; read-out: K-Ras4B processing IC50): 2 µM | IC50 (Rap1A processing [1]; Table 5, read-out: In Vivo Processing IC50 Rap1A): 2 µM | IC50 (Rap1A processing [1]; read-out: Rap1A processing IC50): 2 µM | selectivity for inhibition of geranylgeranylation over farnesylation processing (Rap1A processing [1]): more than 15 fold | concentration needed for accumulation of unprocessed H-Ras (H-Ras processing; FIG. 18): ≥ 30 µM | IC50 (H-Ras processing; Table 5, read-out: In Vivo Processing IC50 H-Ras): > 30 µM | IC50 (H-Ras processing; read-out: H-Ras processing IC50): > 30 µM | inhibition of tumor growth ([2]; 25 mg/kg once daily): 50% | tumor size ([2]; 25 mg/kg once daily): 1600 mm^3 | inhibition of tumor growth ([2]; 50 mg/kg once daily): 70% | tumor size ([2]; 50 mg/kg once daily): 900 mm^3 | inhibition of oncogenic H-Ras activation of MAP kinase [3]: inhibited only slightly | concentration of complete block of K-Ras4B MAP kinase activation [4]: 10 µM | IC50 ([4]; read-out: IC50, inhibition of K-Ras4B MAP kinase activation): 1 µM

CSCC[C@H](NC(=O)c1ccc(NC[C@@H](N)CS)cc1-c1ccccc1)C(=O)O [FTI-276, 4-N-[2(R)-Amino-3-mercaptopropyl]amino-2-phenylbenzoyl methionine]
growth of Raf-transformed NIH 3T3 cells [5]: had no effect | weight loss ([6]; 50 mg/kg once daily for 36 days): no weight loss was observed | toxicity ([6]; dose escalated to 180 mg/kg once daily): lack of toxicity | IC50 (GGTase I; Table 1, read-out: GGTase I IC50): 0.057 µM | IC50 (GGTase I; Table 5, read-out: In Vitro IC50 GGTase I): 0.05 µM | IC50 (GGTase I; read-out: GGTase I IC50): 0.05 µM | average tumor size [7]: 815 mm^3 | average tumor size ([8]; 50 mg/kg i.p. once daily, 64 days from tumor implantation): 113 mm^3 | tumor growth of Calu-1 ([8]; 50 mg/kg once daily): essentially blocked tumor growth | Ras processing in tumors (Ras processing): progressive accumulation of unprocessed Ras | Rap1A processing in tumors (Rap1A processing [9]): did not inhibit Rap1A processing | tumor size at the end of 17 days ([10]; 10 mg/kg): 1793 mm^3 | tumor size at the end of 17 days ([10]; 50 mg/kg): 1226 mm^3 | tumor growth of H-RasF transformed NIH 3T3 cells ([10]; 50 mg/kg once daily): inhibited tumor growth | tumor size at the end of 17 days ([10]; 100 mg/kg): 624 mm^3
